Here are results for 16 compounds from PubChem BioAssay (NCI).

Each structure is given as a SMILES string.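 Cultured in 96-well plates, cells were exposed to test compound for 48 hours across five concentrations. TGI marks complete inhibition of growth.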 Some results are limits rather than exact numbers.

The first assay concerns SNB-19 CNS. Kind of assay: DTP human tumour cell line panel, 48 h.
As usually defined, the TGI is the concentration giving total growth inhibition. Low readings indicate greater sensitivity of the cells, high ones lower sensitivity of the cells. Regarding `COC(=O)c1ccccc1CC1Cc2ccc3c(c2C1=O)CCC3` (configuration not stated), the TGI was over 100 µM.
On the same count and under the same terms, for `CS(=O)(=O)N1CC(CCl)c2ccc([N+](=O)[O-])cc21` (configuration not stated) the value was over 100 µM; for `O=c1cc(NNc2ccccc2)[nH]c(=S)[nH]1`, over 100 µM; for `CC(=O)NC(CS/N=N/c1nc[nH]c1C(N)=O)C(=O)O` (configuration not stated), over 100 µM.
As for `CSc1ncc2c(C#N)c3sc4ccccc4n3c(=O)c2n1`, the TGI was over 100 µM.

The subject of another assay is COLO 205 colon. In words: DTP human tumour cell line panel, 48 h.
`O=C(COc1ccc2c(=O)cc(-c3ccccc3)oc2c1)N1CCN(c2ccccc2)CC1` displayed a TGI of over 100 µM.
Compound `Cn1cnc(CCc2ccccc2)n1` yielded a TGI of over 100 µM.
As for `CC1=C(C(=O)O)N2C(=O)[C@@H](NC(=O)C(c3ccc(O)cc3)N3CSC(=S)N(C(C)C)C3)C2SC1` (some centres not stated), the TGI was over 100 µM.
The same measure, in the same setting: next, `COc1cc(OC)c2c(c1)C(=O)C(CC(C)O)=CC2=O` (configuration not stated): 32.6 µM; `O=Nc1c(O)cc(Nc2ccc(Br)cc2)c2ccccc12`: 26.6 µM.
As to `Cc1csc(=S)n1OC(=O)NC1CCCCC1`, the TGI was over 40.2 µM.
Compound `C=CC/C=C/Cc1csc(C(C)(C)C(O)C/C=C/C(=C)CCNC(=O)OC)n1` (configuration not stated) yielded a TGI of over 100 µM.
Same read-out and setting: next, `COc1ccc(C2=Nc3ccccc3NC(=O)C2)cc1`: over 100 µM; `O=c1c2nn3c(=O)n(-c4ccccc4)c(=O)c3nn2c(=O)n1-c1ccccc1`: over 100 µM.
In turn, `COC(=O)C1=CC2CCCC1(O)C(C(C)=O)C2` (configuration not stated) registered a concentration for total growth inhibition (TGI) of over 100 µM.
For the compound `Cc1ccc(C2=Nc3cccc4cccc(c34)N2)cc1`, the TGI is over 100 µM.
Take `COC(=O)c1ccccc1CC1Cc2ccc3c(c2C1=O)CCC3` (configuration not stated): the TGI was over 100 µM.
`CS(=O)(=O)N1CC(CCl)c2ccc([N+](=O)[O-])cc21` (configuration not stated) showed a concentration for total growth inhibition (TGI) of over 100 µM.
Turning to `O=c1cc(NNc2ccccc2)[nH]c(=S)[nH]1`, the TGI is over 100 µM.
Still for that read-out and setting: for `CC(=O)NC(CS/N=N/c1nc[nH]c1C(N)=O)C(=O)O` (configuration not stated) the value was over 100 µM.
Same read-out and setting: next, `CSc1ncc2c(C#N)c3sc4ccccc4n3c(=O)c2n1`: over 100 µM.

The next assay relates to CAKI-1 renal. Kind of assay: DTP human tumour cell line panel, 48 h.
Take `Cn1cnc(CCc2ccccc2)n1`: the concentration for total growth inhibition (TGI) was over 100 µM.
Same read-out and setting: next, `COc1cc(OC)c2c(c1)C(=O)C(CC(C)O)=CC2=O` (configuration not stated): 34.3 µM; `O=Nc1c(O)cc(Nc2ccc(Br)cc2)c2ccccc12`: 23.7 µM; `Cc1csc(=S)n1OC(=O)NC1CCCCC1`: over 100 µM.
For the compound `C=CC/C=C/Cc1csc(C(C)(C)C(O)C/C=C/C(=C)CCNC(=O)OC)n1` (configuration not stated), the TGI is over 100 µM.
On the same count and under the same terms, next, `COc1ccc(C2=Nc3ccccc3NC(=O)C2)cc1`: over 100 µM; `O=c1c2nn3c(=O)n(-c4ccccc4)c(=O)c3nn2c(=O)n1-c1ccccc1`: over 100 µM.
As to `COC(=O)C1=CC2CCCC1(O)C(C(C)=O)C2` (configuration not stated), the TGI was over 100 µM.
On to `Cc1ccc(C2=Nc3cccc4cccc(c34)N2)cc1`, for which the TGI was over 100 µM.
In turn, `COC(=O)c1ccccc1CC1Cc2ccc3c(c2C1=O)CCC3` (configuration not stated) registered a TGI of over 100 µM.
Consider `CS(=O)(=O)N1CC(CCl)c2ccc([N+](=O)[O-])cc21` (configuration not stated), for which the TGI is over 100 µM.
In the case of `O=c1cc(NNc2ccccc2)[nH]c(=S)[nH]1`, the TGI is 35.9 µM.
`CC(=O)NC(CS/N=N/c1nc[nH]c1C(N)=O)C(=O)O` (configuration not stated): the TGI is over 41.2 µM.
As for `CSc1ncc2c(C#N)c3sc4ccccc4n3c(=O)c2n1`, the TGI was over 100 µM.

The test system of another assay is SN12C renal. In words: DTP human tumour cell line panel, 48 h.
In turn, `O=C(COc1ccc2c(=O)cc(-c3ccccc3)oc2c1)N1CCN(c2ccccc2)CC1` came in with a TGI of over 100 µM.
Take `Cn1cnc(CCc2ccccc2)n1`: the TGI is over 100 µM.
Compound `CC1=C(C(=O)O)N2C(=O)[C@@H](NC(=O)C(c3ccc(O)cc3)N3CSC(=S)N(C(C)C)C3)C2SC1` (some centres not stated) came in with a TGI of over 100 µM.
Regarding `COc1cc(OC)c2c(c1)C(=O)C(CC(C)O)=CC2=O` (configuration not stated), the concentration for total growth inhibition (TGI) was 32.6 µM.
In turn, `O=Nc1c(O)cc(Nc2ccc(Br)cc2)c2ccccc12` returned a TGI of over 63.6 µM.
Compound `Cc1csc(=S)n1OC(=O)NC1CCCCC1` displayed a TGI of over 100 µM.
Still for that read-out and setting: for `C=CC/C=C/Cc1csc(C(C)(C)C(O)C/C=C/C(=C)CCNC(=O)OC)n1` (configuration not stated) the value was over 100 µM.
Take `COc1ccc(C2=Nc3ccccc3NC(=O)C2)cc1`: the TGI was over 100 µM.
For the compound `O=c1c2nn3c(=O)n(-c4ccccc4)c(=O)c3nn2c(=O)n1-c1ccccc1`, the TGI is over 100 µM.
With `COC(=O)C1=CC2CCCC1(O)C(C(C)=O)C2` (configuration not stated), the total growth inhibition concentration (TGI) is over 100 µM.
Compound `Cc1ccc(C2=Nc3cccc4cccc(c34)N2)cc1` returned a TGI of over 100 µM.
`COC(=O)c1ccccc1CC1Cc2ccc3c(c2C1=O)CCC3` (configuration not stated) yielded a TGI of over 100 µM.
`CS(=O)(=O)N1CC(CCl)c2ccc([N+](=O)[O-])cc21` (configuration not stated) registered a TGI of over 100 µM.
Same read-out and setting: next, `O=c1cc(NNc2ccccc2)[nH]c(=S)[nH]1`: over 100 µM; `CC(=O)NC(CS/N=N/c1nc[nH]c1C(N)=O)C(=O)O` (configuration not stated): over 55.9 µM; `CSc1ncc2c(C#N)c3sc4ccccc4n3c(=O)c2n1`: over 100 µM.

The test system of the next assay is SR leukemia. Kind of assay: DTP human tumour cell line panel, 48 h.
The compound `Cn1cnc(CCc2ccccc2)n1` gave a TGI of over 100 µM.
The compound `COc1cc(OC)c2c(c1)C(=O)C(CC(C)O)=CC2=O` (configuration not stated) returned a TGI of 7.44 µM.
The compound `O=Nc1c(O)cc(Nc2ccc(Br)cc2)c2ccccc12` had a total growth inhibition concentration (TGI) of 72.4 µM.
`Cc1csc(=S)n1OC(=O)NC1CCCCC1`: the total growth inhibition concentration (TGI) was determined as 47.3 µM.
As for `C=CC/C=C/Cc1csc(C(C)(C)C(O)C/C=C/C(=C)CCNC(=O)OC)n1` (configuration not stated), the TGI is over 100 µM.
For `COc1ccc(C2=Nc3ccccc3NC(=O)C2)cc1`, the TGI was over 100 µM.
Compound `O=c1c2nn3c(=O)n(-c4ccccc4)c(=O)c3nn2c(=O)n1-c1ccccc1` registered a TGI of over 100 µM.
Take `COC(=O)C1=CC2CCCC1(O)C(C(C)=O)C2` (configuration not stated): the TGI was over 81.5 µM.
Take `Cc1ccc(C2=Nc3cccc4cccc(c34)N2)cc1`: the TGI was over 100 µM.
As for `COC(=O)c1ccccc1CC1Cc2ccc3c(c2C1=O)CCC3` (configuration not stated), the TGI was over 100 µM.
Regarding `CS(=O)(=O)N1CC(CCl)c2ccc([N+](=O)[O-])cc21` (configuration not stated), the TGI is over 100 µM.
Turning to `O=c1cc(NNc2ccccc2)[nH]c(=S)[nH]1`, the TGI stood at 70.3 µM.
In turn, `CC(=O)NC(CS/N=N/c1nc[nH]c1C(N)=O)C(=O)O` (configuration not stated) showed a TGI of 0.0673 µM.
Consider `CSc1ncc2c(C#N)c3sc4ccccc4n3c(=O)c2n1`, for which the TGI was over 100 µM.

The test system of the next assay is DMS 114 small cell lung. Kind of assay: DTP human tumour cell line panel, 48 h.
Take `O=C(COc1ccc2c(=O)cc(-c3ccccc3)oc2c1)N1CCN(c2ccccc2)CC1`: the TGI was over 100 µM.
Consider `Cn1cnc(CCc2ccccc2)n1`, for which the TGI was over 100 µM.
For the compound `CC1=C(C(=O)O)N2C(=O)[C@@H](NC(=O)C(c3ccc(O)cc3)N3CSC(=S)N(C(C)C)C3)C2SC1` (some centres not stated), the TGI was over 100 µM.
Consider `COc1cc(OC)c2c(c1)C(=O)C(CC(C)O)=CC2=O` (configuration not stated), for which the concentration for total growth inhibition (TGI) worked out at 9.21 µM.
As to `Cc1csc(=S)n1OC(=O)NC1CCCCC1`, the TGI was found to be 44.7 µM.
Same read-out and setting: for `C=CC/C=C/Cc1csc(C(C)(C)C(O)C/C=C/C(=C)CCNC(=O)OC)n1` (configuration not stated) the value was 2.91 µM; for `COc1ccc(C2=Nc3ccccc3NC(=O)C2)cc1`, 59.7 µM.
